Measured values published in ChEMBL document CHEMBL4371091, “Hypalocrinins, Taurine-Conjugated Anthraquinone and Biaryl Pigments from the Deep Sea Crinoid Hypalocrinus naresianus” (J Nat Prod, 2019).
Active and inactive are the calls of the source. No cut-off for these calls is given here.

Columns and labels:
[1] = Solubility of the compound in water; format: physicochemical; conditions: buffer
A549 = assay: Cytotoxicity against human A549 cells at 25 ug/ml; format: functional, cell-based
MDA-MB-231 = assay: Cytotoxicity against human MDA-MB-231 cells at 25 ug/ml; format: functional, cell-based
PSN1 = assay: Cytotoxicity against human PSN1 cells at 25 ug/ml; format: functional, cell-based
HT-29 = assay: Cytotoxicity against human HT-29 cells at 25 ug/ml; format: functional, cell-based

Compound	solubility [1]	further results
O=C(O)c1cc(O)c2c(c1)C(=O)c1cc(O)c(Br)c(O)c1C2=O	Soluble	–
O=C(NCCS(=O)(=O)O)c1cc(O)c2c(c1)C(=O)c1cc(O)cc(O)c1C2=O	Soluble	–
O=C(NCCS(=O)(=O)O)c1cc(OS(=O)(=O)O)c2c(c1)C(=O)c1cc(O)c(-c3c(O)c(Br)c(O)c4c3C(=O)c3cc(C(=O)NCCS(=O)(=O)O)cc(OS(=O)(=O)O)c3C4=O)c(O)c1C2=O	Soluble	–
O=C(NCCS(=O)(=O)O)c1cc(O)c2c(c1)C(=O)c1c(c(O)c(Br)c(O)c1-c1c(O)cc3c(c1O)C(=O)c1c(OS(=O)(=O)O)cc(C(=O)NCCS(=O)(=O)O)cc1C3=O)C2=O	Soluble	–
O=C(NCCS(=O)(=O)O)c1cc(OS(=O)(=O)O)c2c(c1)C(=O)c1cc(O)c(Br)c(O)c1C2=O	Soluble	–

More lines, main results first:

solubility [1]	Compound	further results
Soluble	CCCc1cc(O)c2c(c1)C(=O)c1cc(OS(=O)(=O)O)cc(O)c1C2=O	–
Soluble	O=C(NCCS(=O)(=O)O)c1cc(O)c2c(c1)C(=O)c1cc(O)c(CNCCS(=O)(=O)O)c(O)c1C2=O	–
Soluble	O=C(NCCS(=O)(=O)O)c1cc(O)c2c(c1)C(=O)c1cc(O)c(Br)c(O)c1C2=O	Activity (A549): inactive; Activity (MDA-MB-231): inactive; Activity (PSN1): inactive; Activity (HT-29): inactive
Soluble	CCCc1cc(O)c2c(c1)C(=O)c1cc(O)c(CNCCS(=O)(=O)O)c(O)c1C2=O	–
